Source: US20250032423A1, “HERBAL BIOACTIVES BASED IMMUNOSTIMULANT FORMULATION FOR POULTRY BIRDS & CATTLE AND PREPARATION THEREOF” (Edhas Technologies Inc., priority 2023, published 2025)
Blank lines part the entries; values can stand above or below the molecule they belong to.

Key:
[1] = DPPH radical scavenging assay
Pseudomonas aeruginosa = experiment: MIC and fractional inhibitory concentration index (FICI) against Pseudomonas aeruginosa
[2] = ABTS radical scavenging assay

SMILES: O=C1O[C@H]([C@@H](O)CO)C(O)=C1O [Ascorbic acid]
IC50 (DPPH) [1]: 10 ppm
% Inhibition (DPPH scavenging) ([1]; 10 ppm): 58.80%
% Inhibition (DPPH scavenging) ([1]; 25 ppm): 64.65%
% Inhibition (DPPH scavenging) ([1]; 50 ppm): 66.42%
% Inhibition (DPPH scavenging) ([1]; 100 ppm): 71.18%
% Inhibition (DPPH scavenging) ([1]; 250 ppm): 87.60%
% Inhibition (DPPH scavenging) ([1]; 500 ppm): 90.65%

SMILES: COc1cc(/C=C/C(=O)CC(=O)/C=C/c2ccc(O)c(OC)c2)ccc1O [Curcumin]
MIC (Pseudomonas aeruginosa): 8100 µg/mL

SMILES: Cc1c(C)c2c(c(C)c1O)CCC(C)(C(=O)O)O2 (stereo not drawn) [Trolox]
IC50 (ABTS) [2]: 10 ppm
% Inhibition (ABTS scavenging) ([2]; 10 ppm): 54.48%
% Inhibition (ABTS scavenging) ([2]; 25 ppm): 63.01%
% Inhibition (ABTS scavenging) ([2]; 50 ppm): 73.1%
% Inhibition (ABTS scavenging) ([2]; 100 ppm): 86.71%
% Inhibition (ABTS scavenging) ([2]; 250 ppm): 89.12%
% Inhibition (ABTS scavenging) ([2]; 500 ppm): 94.08%
% Inhibition (ABTS scavenging) ([2]; 1000 ppm): 99.24%

Now from value to molecule:

MIC (Pseudomonas aeruginosa): 10100 µg/mL
SMILES: C=CCc1ccc(O)c(OC)c1 [Eugenol]

MIC (Pseudomonas aeruginosa): 9200 µg/mL
SMILES: Cc1ccc(C(C)C)c(O)c1 [Thymol]
